Converted amounts (≈) assume the structure as drawn. Counter-ions that a name gives are not always drawn. Like-named read-outs stand apart in the source and are kept apart here.
Assays:
[1] = Release of THCL and KTF from oleic acid loaded lenses in PBS at different pH; details: release medium pH from 7.4 to 5.5
[2] = cited from earlier work
[3] = cited from earlier work; remark: listed apart in the source

release kinetics of KTF as pH decreases [1] | Compound | solubility in PBS ([2]; pH 7) [µg/mL] | solubility in PBS ([2]; pH 10) [µg/mL] | Solubility in water [3] [µM]
accelerated | CN1CCC(=C2c3ccccc3CC(=O)c3sccc32)CC1 [KTF, ketotifen fumarate] | 10500 | 20 | 
 | CCCCCCCCCCCCCC(=O)O [Myristic acid] |  |  | 1 (≈ 0.228 µg/mL)
